Values quoted from earlier work, collected in patent US20250179129A1, “ZINC FINGER PEPTIDES, PEPTIDE ARRAYS, AND METHODS OF USE THEREOF” (The Regents of the University of California, priority 2022, published 2025).

Tested on: single-strand RNA containing a GGU motif

SDGDWICPDKKCGNVNFARRTSCNRCGREKTT (listed as Homo sapiens) [zinc finger in ZRANB2]
affinity for single-strand RNA containing a GGU motif: micromolar
